This assay concerns the target Caspase-7 (Homo sapiens) (UniProt P55210). Nature of the assay: potency of procaspase-7 enzyme activation – biochemical, absorbance, human, dual procaspase-3/-7 activator project, dose response (AID 504330). As to conditions: recombinant procaspase-7 D3A, Ac-DEVD-pNA absorbance 405 nm.

Active and inactive are the calls of the source.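 Rule for the calls: active = EC50 at or below 10 µM; inactive = the rest.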

Caspase-7 (Homo sapiens), sequence (P55210 whole entry D23A/D198A/D206A): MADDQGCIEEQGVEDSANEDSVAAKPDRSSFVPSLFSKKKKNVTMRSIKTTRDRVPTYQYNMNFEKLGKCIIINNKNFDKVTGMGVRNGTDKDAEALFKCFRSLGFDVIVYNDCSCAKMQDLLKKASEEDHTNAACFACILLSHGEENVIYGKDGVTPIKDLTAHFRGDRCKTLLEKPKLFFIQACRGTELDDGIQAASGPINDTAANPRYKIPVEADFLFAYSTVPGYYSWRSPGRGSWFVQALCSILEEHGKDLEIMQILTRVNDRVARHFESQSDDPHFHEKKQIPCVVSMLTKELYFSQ

Broadly, the EC50 is the concentration that produces a half-maximal response. `CCOc1ccc(N=CC2=C(O)CC(c3ccco3)CC2=O)cc1` (stereo unspecified): the EC50 was > 85.3 µM (inactive).

The record behind these values is PubChem BioAssay AID504330 (The Scripps Research Institute Molecular Screening Center, 2011).
